{"source": "patent US7071218B2", "about": "“N-substituted heterocycles for the treatment of hypercholesteremia, dyslipidemia and other metabolic disorders; cancer, and other diseases” (Incyte San Diego Incorporated, priority 2001, dated 2006)", "key": {"[1]": {"test_system": "PC-3 prostate cancer cells", "assay": "MTT anti-cancer assay, PC-3 prostate cancer cells", "assay_type": "cell-based, human", "details": "PC-3, 6 days", "from_the_text": "(§1) The anti-cancer activity of the compounds of the invention herein have been tested in in vitro assays using a microculture assay with 3-(4,5-dimethylthiazol-2-yl)-2,5-diphenyltetrazolium bromide (“MTT”) a test well known to those skilled in the art. This assay has an advantage over in vivo assay in that results are obtained within a week as opposed to several months. The assay can be carried out in 96-well microtiter plates. The MTT assay is based on the production of a dark blue formazan product by dehydrogenase in the mitochondria of live tumor cells after exposure to drug for 6 days [M. C. […] Thus, only live cells are stained and can be measured at 595 nm. […]\n(§2) Treatment: Before commencing drug treatment, cells were replenished with media containing 0.5% FCS. […] As an end point, the amount of surviving cells (Live cells) was measured using a standard […] assay (MTT based), and calculated as percentage of cells treated with vehicle (DMSO) alone (% control).\n(§3) MTT assay: The assay is based on the cleavage of the yellow tetrazolium salt MTT to purple formazan crystals by dehydrogenase activity in active mitochondria. […] The formazan crystals formed are solubilized and the resulting colored solution is quantified using a scanning multiwell spectrophotometer. […]"}, "[2]": {"test_system": "human cancer cell lines (A549, MDA-MB-468, PC-3, Bx-PC3)", "assay": "MTT anti-cancer assay, the other cancer cell lines of the panel", "assay_type": "cell-based", "details": "cell lines other than PC-3 (A549, MDA-MB-468, Bx-PC3), compared to PC-3", "from_the_text": "as §1, §2, §3"}}}
{"smiles": "COc1cccc(/C=C2\\SC(=S)N(CC(=O)O)C2=O)c1-c1cc2c(cc1C)C(C)(C)CCC2(C)C", "note": "[Compound 9, {5-[3-Methoxy-2-(3,5,5,8,8-pentamethyl-5,6,7,8-tetrahydro-naphthalen-2-yl)-benzylidene]4-oxo-2-thioxo-thiazolidin-3-yl}-acetic acid]", "values": [{"measurement": "anticancer effect", "setting": "[1]", "value": "very potent anticancer effect"}, {"measurement": "anticancer effect", "setting": "[2]", "value": "less pronounced"}]}
